# Tested on: Transport facilitation protein genes
# Test: DNA chip mRNA expression in yeast, transport facilitation protein genes (Table 5)
# Format: cell-based, Saccharomyces cerevisiae S288C
# In short: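 Values are treated/untreated fluorescence ratios from a whole-genome yeast DNA chip hybridized over 12 hours at 65° C with Cy3- or Cy5-labelled cDNA from poly(A) mRNA. Log-phase S288C yeast in YPD at 25° C had received a single toxic chemical for two hours, dosed to slow growth without killing.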
smiles,measurement,setting,value
"O=[N+]([O-])c1cc[n+]([O-])c2ccccc12 [(5), 4-nitroquinolin-N-oxide]",The level of expressed mRNA in the presence of chemical substance/The level of expressed mRNA in the absence of chemical substance,yeast gene YGR281W,0.6
same,The level of expressed mRNA in the presence of chemical substance/The level of expressed mRNA in the absence of chemical substance,yeast gene YHL035C,0.9
same,The level of expressed mRNA in the presence of chemical substance/The level of expressed mRNA in the absence of chemical substance,yeast gene YHL040C,1.1
same,The level of expressed mRNA in the presence of chemical substance/The level of expressed mRNA in the absence of chemical substance,yeast gene YHL047C,1.2
same,The level of expressed mRNA in the presence of chemical substance/The level of expressed mRNA in the absence of chemical substance,yeast gene YHR026W,1.1
same,The level of expressed mRNA in the presence of chemical substance/The level of expressed mRNA in the absence of chemical substance,yeast gene YHR092C,1.4
same,The level of expressed mRNA in the presence of chemical substance/The level of expressed mRNA in the absence of chemical substance,yeast gene YHR094C,1.1
same,The level of expressed mRNA in the presence of chemical substance/The level of expressed mRNA in the absence of chemical substance,yeast gene YHR175W,0.9
same,The level of expressed mRNA in the presence of chemical substance/The level of expressed mRNA in the absence of chemical substance,yeast gene YIL006W,0.8
same,The level of expressed mRNA in the presence of chemical substance/The level of expressed mRNA in the absence of chemical substance,yeast gene YIL022W,0.8
same,The level of expressed mRNA in the presence of chemical substance/The level of expressed mRNA in the absence of chemical substance,yeast gene YIL056W,1.2
same,The level of expressed mRNA in the presence of chemical substance/The level of expressed mRNA in the absence of chemical substance,yeast gene YIL088C,1.6
same,The level of expressed mRNA in the presence of chemical substance/The level of expressed mRNA in the absence of chemical substance,yeast gene YJL034W,1.2
same,The level of expressed mRNA in the presence of chemical substance/The level of expressed mRNA in the absence of chemical substance,yeast gene YJL212C,1.2
same,The level of expressed mRNA in the presence of chemical substance/The level of expressed mRNA in the absence of chemical substance,yeast gene YJL219W,1.2
same,The level of expressed mRNA in the presence of chemical substance/The level of expressed mRNA in the absence of chemical substance,yeast gene YJR077C,0.9
same,The level of expressed mRNA in the presence of chemical substance/The level of expressed mRNA in the absence of chemical substance,yeast gene YJR106W,0.9
same,The level of expressed mRNA in the presence of chemical substance/The level of expressed mRNA in the absence of chemical substance,yeast gene YJR121W,0.8
same,The level of expressed mRNA in the presence of chemical substance/The level of expressed mRNA in the absence of chemical substance,yeast gene YKL016C,1.5
same,The level of expressed mRNA in the presence of chemical substance/The level of expressed mRNA in the absence of chemical substance,yeast gene YKL146W,1.0
same,The level of expressed mRNA in the presence of chemical substance/The level of expressed mRNA in the absence of chemical substance,yeast gene YKR039W,1.0
same,The level of expressed mRNA in the presence of chemical substance/The level of expressed mRNA in the absence of chemical substance,yeast gene YKR067W,1.3
same,The level of expressed mRNA in the presence of chemical substance/The level of expressed mRNA in the absence of chemical substance,yeast gene YLL028W,0.9
same,The level of expressed mRNA in the presence of chemical substance/The level of expressed mRNA in the absence of chemical substance,yeast gene YLR081W,1.0
same,The level of expressed mRNA in the presence of chemical substance/The level of expressed mRNA in the absence of chemical substance,yeast gene YLR295C,2.2
same,The level of expressed mRNA in the presence of chemical substance/The level of expressed mRNA in the absence of chemical substance,yeast gene YLR348C,0.9
same,The level of expressed mRNA in the presence of chemical substance/The level of expressed mRNA in the absence of chemical substance,yeast gene YLR378C,1.0
same,The level of expressed mRNA in the presence of chemical substance/The level of expressed mRNA in the absence of chemical substance,yeast gene YMR011W,0.9
same,The level of expressed mRNA in the presence of chemical substance/The level of expressed mRNA in the absence of chemical substance,yeast gene YMR162C,0.9
same,The level of expressed mRNA in the presence of chemical substance/The level of expressed mRNA in the absence of chemical substance,yeast gene YMR203W,0.6
same,The level of expressed mRNA in the presence of chemical substance/The level of expressed mRNA in the absence of chemical substance,yeast gene YNL055C,0.9
same,The level of expressed mRNA in the presence of chemical substance/The level of expressed mRNA in the absence of chemical substance,yeast gene YNL259C,1.1
same,The level of expressed mRNA in the presence of chemical substance/The level of expressed mRNA in the absence of chemical substance,yeast gene YNR072W,1.0
same,The level of expressed mRNA in the presence of chemical substance/The level of expressed mRNA in the absence of chemical substance,yeast gene YOL119C,1.5
same,The level of expressed mRNA in the presence of chemical substance/The level of expressed mRNA in the absence of chemical substance,yeast gene YOL156W,1.2
same,The level of expressed mRNA in the presence of chemical substance/The level of expressed mRNA in the absence of chemical substance,yeast gene YOL163W,0.9
same,The level of expressed mRNA in the presence of chemical substance/The level of expressed mRNA in the absence of chemical substance,yeast gene YOR035C,1.0
same,The level of expressed mRNA in the presence of chemical substance/The level of expressed mRNA in the absence of chemical substance,yeast gene YOR130C,1.8
same,The level of expressed mRNA in the presence of chemical substance/The level of expressed mRNA in the absence of chemical substance,yeast gene YOR153W,1.0
same,The level of expressed mRNA in the presence of chemical substance/The level of expressed mRNA in the absence of chemical substance,yeast gene YOR270C,0.8
same,The level of expressed mRNA in the presence of chemical substance/The level of expressed mRNA in the absence of chemical substance,yeast gene YOR273C,1.1
same,The level of expressed mRNA in the presence of chemical substance/The level of expressed mRNA in the absence of chemical substance,yeast gene YOR316C,1.0
same,The level of expressed mRNA in the presence of chemical substance/The level of expressed mRNA in the absence of chemical substance,yeast gene YOR328W,1.0
same,The level of expressed mRNA in the presence of chemical substance/The level of expressed mRNA in the absence of chemical substance,yeast gene YOR332W,0.9
same,The level of expressed mRNA in the presence of chemical substance/The level of expressed mRNA in the absence of chemical substance,yeast gene YOR348C,0.9
same,The level of expressed mRNA in the presence of chemical substance/The level of expressed mRNA in the absence of chemical substance,yeast gene YPL036W,1.3
same,The level of expressed mRNA in the presence of chemical substance/The level of expressed mRNA in the absence of chemical substance,yeast gene YPL134C,1.4
same,The level of expressed mRNA in the presence of chemical substance/The level of expressed mRNA in the absence of chemical substance,yeast gene YPL265W,1.0
same,The level of expressed mRNA in the presence of chemical substance/The level of expressed mRNA in the absence of chemical substance,yeast gene YPL271W,1.4
same,The level of expressed mRNA in the presence of chemical substance/The level of expressed mRNA in the absence of chemical substance,yeast gene YPR124W,2.0
same,The level of expressed mRNA in the presence of chemical substance/The level of expressed mRNA in the absence of chemical substance,yeast gene YPR192W,1.2
same,The level of expressed mRNA in the presence of chemical substance/The level of expressed mRNA in the absence of chemical substance,yeast gene YPR194C,1.3

# Reference: patent US8192962B2, “Processes for detecting toxic substances” (Daikin Industries, Ltd., priority 2001, dated 2012)
